Several values for one entry are separate records, joined by “and”; a condition that tells them apart may be missing. Identical values can stand only once. Toxic doses and inconclusive results are not listed.
System: P388 leukemia ip, CD2F1 mice, survival T/C
Test: NCI In Vivo Anticancer Drug Screen. Data for tumor model P388 Leukemia (intraperitoneal) in CD2F1 (CDF1) mice
Conditions: endpoint: median survival time, higher = longer survival
Procedure, shortened: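 Mice carrying the transplanted tumor received test compound or vehicle. Survival was recorded in each group, and the value is the treated-group measurement divided by that of the vehicle-treated control group.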

[1] = dose: 50.0 mg/kg/injection, schedule: Q01DX005 (ip), vehicle: saline
[2] = dose: 100.0 mg/kg/injection, schedule: Q01DX005 (ip), vehicle: saline
[3] = dose: 200.0 mg/kg/injection, schedule: Q01DX005 (ip), vehicle: saline
[4] = dose: 50.0 mg/kg/injection, schedule: Q01DX005 (ip), vehicle: saline with Tween-80
[5] = dose: 60.0 mg/kg/injection, schedule: Q01DX005 (ip), vehicle: saline with Tween-80
[6] = dose: 120.0 mg/kg/injection, schedule: Q01DX005 (ip), vehicle: saline with Tween-80
[7] = dose: 240.0 mg/kg/injection, schedule: Q01DX005 (ip), vehicle: saline with Tween-80
[8] = dose: 12.5 mg/kg/injection, schedule: Q01DX009 (ip), vehicle: saline with Tween-80
[9] = dose: 25.0 mg/kg/injection, schedule: Q01DX009 (ip), vehicle: saline with Tween-80
[10] = dose: 50.0 mg/kg/injection, schedule: Q01DX009 (ip), vehicle: saline with Tween-80
[11] = dose: 100.0 mg/kg/injection, schedule: Q01DX009 (ip), vehicle: saline with Tween-80
[12] = dose: 200.0 mg/kg/injection, schedule: Q01DX009 (ip), vehicle: saline with Tween-80
[13] = dose: 50.0 mg/kg/injection, schedule: Q01DX005 (ip), vehicle: Klucel (hydroxypropylcellulose) (HPC)
[14] = dose: 100.0 mg/kg/injection, schedule: Q01DX005 (ip), vehicle: Klucel (hydroxypropylcellulose) (HPC)
[15] = dose: 100.0 mg/kg/injection, schedule: Q01DX005 (ip), vehicle: saline with Tween-80
[16] = dose: 200.0 mg/kg/injection, schedule: Q01DX005 (ip), vehicle: saline with Tween-80

In the case of `CC(C)(C)NCC(O)c1ccc(O)c(CO)n1` (configuration not stated), the T/C [1] is reported as 95 % of control, the T/C [2] is reported as 102 % of control and the T/C [3] is reported as 95 % of control.
For `S=C(NCCCN1CCN(CCCNC(=S)Nc2c3ccccc3nc3ccccc23)CC1)Nc1c2ccccc2nc2ccccc12`, the T/C (dose: 6.25 mg/kg/injection, schedule: Q01DX005 (ip), vehicle: saline with Tween-80) was 98 % of control, the T/C (dose: 12.5 mg/kg/injection, schedule: Q01DX005 (ip), vehicle: saline with Tween-80) was 100 % of control and 110 % of control and the T/C (dose: 25.0 mg/kg/injection, schedule: Q01DX005 (ip), vehicle: saline with Tween-80) was 114 % of control and 116 % of control. The T/C [4] was 119 % of control and 120 % of control.
With `CC(C)(Cc1nocc1C(C)(C)CC#N)c1cc(CC(C)(C)C2(C)OCCO2)no1` the T/C [5] was 95 % of control and the T/C [6] was 88 % of control.
For `O=C1C(c2cnc3c(n2)CCC=C3)=C(O)c2ccccc21`, the T/C [5] was 99 % of control, the T/C [6] was 100 % of control and the T/C [7] was 100 % of control.
In the case of `CC(=O)c1c(O)c(C)c(C)c2c1OC(=O)C2C` (configuration not stated), the T/C (dose: 3.12 mg/kg/injection, schedule: Q01DX009 (ip), vehicle: saline with Tween-80) is reported as 109 % of control, the T/C (dose: 6.25 mg/kg/injection, schedule: Q01DX009 (ip), vehicle: saline with Tween-80) is reported as 116 % of control and the T/C [8] is reported as 108 % of control.
In the case of `O=C(CCCCC(=O)N1CCOCC1)N1CCOCC1`, the T/C [1] is reported as 100 % of control, the T/C [2] is reported as 101 % of control and the T/C [3] is reported as 101 % of control.
In the case of `CCOCC(COCC)(COCC)COCC`, the T/C [8] is reported as 110 % of control, the T/C [9] is reported as 110 % of control and the T/C [10] is reported as 119 % of control.
With `CC1([P+](C)(C)C)C2C=CC1CC2` (configuration not stated) the T/C (dose: 25.0 mg/kg/injection, schedule: Q01DX001 (ip), vehicle: saline) was 100 % of control, the T/C (dose: 50.0 mg/kg/injection, schedule: Q01DX001 (ip), vehicle: saline) was 103 % of control and the T/C (dose: 100.0 mg/kg/injection, schedule: Q01DX001 (ip), vehicle: saline with Tween-80) was 105 % of control. For the same compound, the T/C (dose: 100.0 mg/kg/injection, schedule: Q01DX001 (ip), vehicle: saline) was 100 % of control.
`CN1/C(=C2\C=CC=C\C2=N/S(=O)(=O)c2ccc(Cl)cc2)Sc2ccccc21` was tested, and the T/C (dose: 100.0 mg/kg/injection, schedule: Q04DX003 (ip), vehicle: saline) was 103 % of control, the T/C (dose: 200.0 mg/kg/injection, schedule: Q04DX003 (ip), vehicle: saline) was 104 % of control and the T/C (dose: 400.0 mg/kg/injection, schedule: Q04DX003 (ip), vehicle: saline) was 99 % of control.
In the case of `COC(=O)/C1=C/CCC2=CC(CCC1)OC2=O` (configuration not stated), the T/C (dose: 35.75 mg/kg/injection, schedule: Q01DX005 (ip), vehicle: Klucel (hydroxypropylcellulose) (HPC)) is reported as 103 % of control, the T/C (dose: 71.5 mg/kg/injection, schedule: Q01DX005 (ip), vehicle: Klucel (hydroxypropylcellulose) (HPC)) is reported as 99 % of control and the T/C (dose: 143.0 mg/kg/injection, schedule: Q01DX005 (ip), vehicle: Klucel (hydroxypropylcellulose) (HPC)) is reported as 97 % of control.
In the case of `COc1ccc(/C=C\c2cc(OC)c(OC)c(OC)c2)c(O)c1O`, the T/C (dose: 3.12 mg/kg/injection, schedule: Q01DX009 (ip), vehicle: saline + Tween-80 + alcohol) is reported as 124 % of control, the T/C (dose: 12.5 mg/kg/injection, schedule: Q01DX009 (ip), vehicle: saline + Tween-80 + alcohol) is reported as 104 % of control and 97 % of control and the T/C (dose: 22.0 mg/kg/injection, schedule: Q01DX009 (ip), vehicle: saline + alcohol) is reported as 95 % of control. The T/C (dose: 50.0 mg/kg/injection, schedule: Q01DX009 (ip), vehicle: saline + Tween-80 + alcohol) was 109 % of control.
In the case of `C/C=C(/C(=O)O)S(=O)(=O)O.[Ag]`, the T/C (dose: 20.0 mg/kg/injection, schedule: Q01DX009 (ip), vehicle: saline with Tween-80) is reported as 103 % of control.
`COc1cc(Oc2c(C)c(Cl)c(OC)c(Cl)c2OC)c2c(c1Cl)COC2=O` was tested, and the T/C (dose: 7.5 mg/kg/injection, schedule: Q01DX005 (ip), vehicle: Klucel (hydroxypropylcellulose) (HPC)) was 97 % of control, the T/C (dose: 15.0 mg/kg/injection, schedule: Q01DX005 (ip), vehicle: Klucel (hydroxypropylcellulose) (HPC)) was 97 % of control and the T/C (dose: 30.0 mg/kg/injection, schedule: Q01DX005 (ip), vehicle: Klucel (hydroxypropylcellulose) (HPC)) was 100 % of control.
In the case of `COc1cc(-c2ccc(NC(=O)Nc3nccs3)c(OC)c2)ccc1NC(=O)Nc1nccs1`, the T/C [10] is reported as 95 % of control, the T/C [11] is reported as 98 % of control and the T/C [12] is reported as 96 % of control.
With `CCN(C)c1nc(N(C)C)nc(N(C)C)n1` the T/C (dose: 50.0 mg/kg/injection, schedule: Q04DX002 (ip), vehicle: saline with Tween-80) was 100 % of control, the T/C (dose: 50.0 mg/kg/injection, schedule: Q04DX002 (ip), vehicle: saline) was 109 % of control and the T/C (dose: 100.0 mg/kg/injection, schedule: Q04DX002 (ip), vehicle: saline with Tween-80) was 107 % of control. For the same compound, the T/C (dose: 100.0 mg/kg/injection, schedule: Q04DX002 (ip), vehicle: saline) was 110 % of control, the T/C (dose: 200.0 mg/kg/injection, schedule: Q04DX002 (ip), vehicle: saline with Tween-80) was 100 % of control and the T/C (dose: 200.0 mg/kg/injection, schedule: Q04DX002 (ip), vehicle: saline) was 109 % of control.
For `CC(C)C(NC=O)C(=O)O` (configuration not stated), the T/C [13] was 101 % of control, the T/C [4] was 91 % of control and the T/C [14] was 101 % of control. The T/C [15] was 98 % of control, the T/C (dose: 200.0 mg/kg/injection, schedule: Q01DX005 (ip), vehicle: Klucel (hydroxypropylcellulose) (HPC)) was 95 % of control and the T/C [16] was 94 % of control.
`Cn1cnnc1[N+](=O)[O-]` was tested, and the T/C (dose: 25.0 mg/kg/injection, schedule: Q04DX003 (ip), vehicle: saline sonified) was 100 % of control, the T/C (dose: 50.0 mg/kg/injection, schedule: Q04DX003 (ip), vehicle: saline sonified) was 95 % of control and the T/C (dose: 100.0 mg/kg/injection, schedule: Q04DX003 (ip), vehicle: saline sonified) was 90 % of control.
With `O=C(CSc1ccccc1)c1ccccc1` the T/C (dose: 10.0 mg/kg/injection, schedule: Q01DX005 (ip), vehicle: Klucel (hydroxypropylcellulose) (HPC)) was 101 % of control, the T/C (dose: 20.0 mg/kg/injection, schedule: Q01DX005 (ip), vehicle: Klucel (hydroxypropylcellulose) (HPC)) was 102 % of control and the T/C (dose: 40.0 mg/kg/injection, schedule: Q01DX005 (ip), vehicle: Klucel (hydroxypropylcellulose) (HPC)) was 101 % of control.
In the case of `O=[N+]([O-])c1ccc(Sc2ccncn2)c([N+](=O)[O-])c1`, the T/C [8] is reported as 91 % of control, the T/C [9] is reported as 116 % of control and the T/C [10] is reported as 123 % of control. The T/C [11] was 116 % of control.
In the case of `CC(C)NC(=S)NCc1ccc(Cl)c(Cl)c1`, the T/C (dose: 50.0 mg/kg/injection, schedule: Q01DX009 (ip), vehicle: other) is reported as 88 % of control and the T/C (dose: 100.0 mg/kg/injection, schedule: Q01DX009 (ip), vehicle: other) is reported as 96 % of control.
`Nc1nc2nc3c(nc2c(=O)[nH]1)CCCC3` was tested, and the T/C [5] was 101 % of control, the T/C [6] was 92 % of control and the T/C [7] was 90 % of control.
With `CN(Cc1cnc2nc(N)nc(N)c2n1)c1ccc(C(=O)NC(CCC(=O)O)C(=O)O)cc1Br` (configuration not stated) the T/C (dose: 0.62 mg/kg/injection, schedule: Q01DX009 (ip), vehicle: saline sonified) was 209 % of control, the T/C (dose: 1.25 mg/kg/injection, schedule: Q01DX009 (ip), vehicle: saline sonified) was 236 % of control and the T/C (dose: 2.5 mg/kg/injection, schedule: Q01DX009 (ip), vehicle: saline sonified) was 245 % of control. For the same compound, the T/C (dose: 5.0 mg/kg/injection, schedule: Q04DX003 (ip), vehicle: saline with Tween-80) was 200 % of control, the T/C (dose: 6.6 mg/kg/injection, schedule: Q04DX003 (ip), vehicle: saline with Tween-80) was 166 % of control and the T/C (dose: 10.0 mg/kg/injection, schedule: Q04DX003 (ip), vehicle: saline with Tween-80) was 166 % of control and 200 % of control.
In the case of `CNc1ccccc1Br`, the T/C [4] is reported as 100 % of control, the T/C [15] is reported as 100 % of control and the T/C [16] is reported as 100 % of control.
With `O=C1C=CC(=Nc2cccc3c(N=C4C=CC(=O)O4)cccc23)O1` the T/C (dose: 25.0 mg/kg/injection, schedule: Q01DX005 (ip), vehicle: Klucel (hydroxypropylcellulose) (HPC)) was 107 % of control, the T/C [13] was 111 % of control and the T/C [14] was 115 % of control.
`C=C1C(=O)C(CCCC)=C(CCC)C1O` (configuration not stated) was tested, and the T/C [5] was 100 % of control and the T/C [6] was 107 % of control.
In the case of `S=C(Nc1ccc(Cl)cc1)SSC(Cl)(Cl)Cl`, the T/C [8] is reported as 91 % of control, the T/C [9] is reported as 100 % of control and the T/C (dose: 50.0 mg/kg/injection, schedule: Q01DX009 (ip), vehicle: saline + alcohol) is reported as 112 % of control. For the same compound, the T/C [10] was 115 % of control.
In the case of `Cn1nnc2c1C(=O)c1ccccc1C2=O`, the T/C [10] is reported as 106 % of control, the T/C [11] is reported as 111 % of control and the T/C [12] is reported as 110 % of control.
With `O=C(Nc1ccc(Br)c2ccccc12)c1ccc2ccccc2c1O` the T/C [5] was 91 % of control and the T/C [6] was 92 % of control.
